Reference: paper PMC5011342, “A high throughput drug screening assay to identify compounds that promote oligodendrocyte differentiation using acutely dissociated and purified oligodendrocyte precursor cells” (BMC Research Notes, 2016)
Where two headings read alike, the source gives them in different places.

Experiments:
[1] = test system: acutely dissociated and purified rat OPCs; assay: Acute OL differentiation assay (MBP expression/cell, immunofluorescent image quantification); assay type: cell-based
Method in brief: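 This acute differentiation assay used purified rat OPCs from postnatal day 6–7 pups, seeded into PDL/laminin-coated 96-well plates in differentiation medium lacking PDGF and FGF. Compounds were applied in quadruplicate after a 1–2 h preincubation at 37 °C, 10 % CO2, with 0.1 % DMSO negative and 40 ng/ml T3 positive controls in eight wells. After fixation on DIV4, anti-MBP immunofluorescence images yielded MBP expression/cell.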

expanded OPCs = assay: cells; settings: for viability at 0.1 µM / viability at 1 µM / viability at 10 µM: Rattus norvegicus, 72 h
Method in brief: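 Toxicity screen: compounds added at 0.1, 1 and 10 µM to PDGF-AA-expanded OPCs in 96-well plates, 3-day incubation at 37 °C, 10% CO2, then alamarBlue 1:10 for 4 h with fluorescence readout. Results set screening doses of 10/2, 2/0.4 or 0.4/0.08 µM.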

[2] = Rattus norvegicus, 2 uM test compound, relative to quetiapine, sheet "All OLga data", read-out: OL differentiation, 2 uM (% Quet)
[3] = Rattus norvegicus, 10 uM test compound, relative to quetiapine, sheet "All OLga data", read-out: OL differentiation, 10 uM (% Quet)
[4] = read-out: 0.1 µM (% DMSO), alamarBlue viability, NCC library compound at 0.1 µM, sheet "All Tox data"
[5] = read-out: 1 µM (% DMSO), alamarBlue viability, NCC library compound at 1 µM, sheet "All Tox data"
[6] = read-out: 10 µM (% DMSO), alamarBlue viability, NCC library compound at 10 µM, sheet "All Tox data"
[7] = Rattus norvegicus, test compound at 2 uM, NCC library screen, sheet "All OLga data", relative to quetiapine, read-out: 2 uM (% Quet)
[8] = Rattus norvegicus, test compound at 10 uM, NCC library screen, sheet "All OLga data", relative to quetiapine, read-out: 10 uM (% Quet)
[9] = Rattus norvegicus, test compound at 2 uM, MBP expression relative to quetiapine, NCC library screen, sheet "All OLga data", read-out: 2 uM (% Quet)
[10] = Rattus norvegicus, test compound at 10 uM, MBP expression relative to quetiapine, NCC library screen, sheet "All OLga data", read-out: 10 uM (% Quet)
[11] = alamarBlue viability of expanded OPCs, compound at 0.1 µM, relative to DMSO control
[12] = alamarBlue viability of expanded OPCs, compound at 1 µM, relative to DMSO control
[13] = alamarBlue viability of expanded OPCs, compound at 10 µM, relative to DMSO control
[14] = read-out: 0.1 µM (% DMSO), alamarBlue viability of expanded OPCs, compound at 0.1 µM, sheet All Tox data
[15] = read-out: 1 µM (% DMSO), alamarBlue viability of expanded OPCs, compound at 1 µM, sheet All Tox data
[16] = read-out: 10 µM (% DMSO), alamarBlue viability of expanded OPCs, compound at 10 µM, sheet All Tox data
[17] = Rattus norvegicus, 0.4 uM test compound, relative to quetiapine, sheet "All OLga data", read-out: OL differentiation, 0.4 uM (% Quet)
[18] = Rattus norvegicus, test compound at 0.4 uM, NCC library screen, sheet "All OLga data", relative to quetiapine, read-out: 0.4 uM (% Quet)

| Structure (SMILES) | activation at 2 µM [1, 2] [%] | activation at 10 µM [1, 3] [%] | viability at 0.1 µM (expanded OPCs; [4]) [%] | viability at 1 µM (expanded OPCs; [5]) [%] | viability at 10 µM (expanded OPCs; [6]) [%] | activation at 2 µM [1, 7] [%] | viability at 0.1 µM (expanded OPCs; [14]) [%] | viability at 1 µM (expanded OPCs; [15]) [%] | viability at 10 µM (expanded OPCs; [16]) [%] | also measured |
| --- | --- | --- | --- | --- | --- | --- | --- | --- | --- | --- |
| Cc1ncc([N+](=O)[O-])n1CC(O)CCl (stereo not drawn) [Ornidazole] | 4.7 | 13 | 106 | 91.3 | 82.2 | – | – | – | – | – |
| CCN(CC)CC1CCCCN1CC(=O)N1c2ccccc2C(=O)Nc2cccnc21 (stereo not drawn) [Otenzepad] | – | – | 91.2 | 81.4 | 75.7 | 11.2 | – | – | – | activation at 10 µM [1, 8]: 13.5% |
| Cc1onc(-c2ccccc2)c1C(=O)N[C@@H]1C(=O)N2[C@@H]1SC(C)(C)[C@@H]2C(=O)O [Oxacillin] | – | – | – | – | – | – | – | – | – | activation at 2 µM [1, 9]: -14.9%; activation at 10 µM [1, 10]: -26.1%; 0.1 µM (% DMSO) (expanded OPCs; [11]): 96.9 % DMSO; 1 µM (% DMSO) (expanded OPCs; [12]): 96.8 % DMSO; 10 µM (% DMSO) (expanded OPCs; [13]): 93.4 % DMSO |
| O=C(O)CCc1nc(-c2ccccc2)c(-c2ccccc2)o1 [Oxaprozin] | -15.3 | -15 | – | – | – | – | 91.8 | 86.6 | 78 | – |
| NC(=O)N1c2ccccc2CC(=O)c2ccccc21 [Oxcarbazepine] | -28.9 | -57.8 | – | – | – | – | 102 | 92 | 73.5 | – |
| Clc1ccc(CO/N=C(\Cn2ccnc2)c2ccc(Cl)cc2Cl)c(Cl)c1 [Oxiconazole] | – | – | – | – | – | – | 131 | 195 | 11.7 | activation at 0.4 µM [1, 17]: 96.5% |
| C[C@]12C/C(=C/O)C(=O)C[C@@H]1CC[C@@H]1[C@@H]2CC[C@@]2(C)[C@H]1CC[C@]2(C)O [Oxymetholone] | -31.7 | – | – | – | – | – | 82.4 | 79.2 | 48.9 | activation at 0.4 µM [1, 17]: -20% |
| CN1CC[C@]23c4c5ccc(O)c4O[C@H]2c2[nH]c4ccccc4c2C[C@@]3(O)[C@H]1C5 [Oxymorphindole] | – | – | 85.7 | 54.1 | 12 | – | – | – | – | activation at 0.08 µM ([1]; Rattus norvegicus, test compound at 0.08 uM, NCC library screen, sheet "All OLga data", relative to quetiapine, read-out: 0.08 uM (% Quet)): -8.6%; activation at 0.4 µM [1, 18]: -51.8% |
| CC[N+](C)(CC)CCOC(=O)C(O)(c1ccccc1)C1CCCCC1 (stereo not drawn) [Oxyphenonium] | – | – | 92.5 | 97.2 | 94.9 | -6.1 | – | – | – | activation at 10 µM [1, 8]: 36.4% |
| CN(C)[C@@H]1C(O)=C(C(N)=O)C(=O)[C@@]2(O)C(O)=C3C(=O)c4c(O)cccc4[C@@](C)(O)[C@H]3[C@H](O)[C@@H]12 [Oxytetracycline] | – | – | – | – | – | – | – | – | – | activation at 2 µM [1, 9]: -42.7%; activation at 10 µM [1, 10]: -36.7%; 0.1 µM (% DMSO) (expanded OPCs; [11]): 98.0 % DMSO; 1 µM (% DMSO) (expanded OPCs; [12]): 97.7 % DMSO; 10 µM (% DMSO) (expanded OPCs; [13]): 93.6 % DMSO |
| O=C(O)/C=C/c1ccc(Cn2ccnc2)cc1 [Ozagrel] | -6.1 | -20.6 | – | – | – | – | 82.8 | 85.9 | 92.2 | – |
| Cc1sc(N)c(C(=O)c2cccc(C(F)(F)F)c2)c1C [PD 81723] | – | – | – | – | – | – | – | – | – | 0.4 uM (% Quet) ([1]; test compound at 0.4 uM, NCC library screen, sheet "All OLga data", relative to quetiapine): 4.2 % Quet; 2 uM (% Quet) ([1]; test compound at 2 uM, NCC library screen, sheet "All OLga data", relative to quetiapine): -21.8 % Quet; 0.1 µM (% DMSO) (expanded OPCs; alamarBlue viability, NCC library compound at 0.1 µM, sheet "All Tox data"): 90.2 % DMSO; 1 µM (% DMSO) (expanded OPCs; alamarBlue viability, NCC library compound at 1 µM, sheet "All Tox data"): 90.8 % DMSO; 10 µM (% DMSO) (expanded OPCs; alamarBlue viability, NCC library compound at 10 µM, sheet "All Tox data"): 57.3 % DMSO |
| O=C1c2cccc3c2[C@H](CCC3)CN1[C@@H]1CN2CCC1CC2 [Palonosetron] | – | – | 93 | 92.4 | 72.1 | 13.3 | – | – | – | activation at 10 µM [1, 8]: 29.7% |
| CC(=O)O[C@H]1C[C@@H]2CC[C@@H]3[C@H](CC[C@@]4(C)[C@H]3C[C@H]([N+]3(C)CCCCC3)[C@@H]4OC(C)=O)[C@@]2(C)C[C@@H]1[N+]1(C)CCCCC1 [Pancuronium] | 14.7 | 8.2 | – | – | – | – | 83.3 | 83.2 | 88 | – |
| COc1ccnc(C[S+]([O-])c2nc3ccc(OC(F)F)cc3[nH]2)c1OC (stereo not drawn) [Pantoprazole] | 8.8 | -5.3 | – | – | – | – | 94.1 | 91.1 | 95.2 | – |
| CCC(=O)NS(=O)(=O)c1ccc(-c2c(-c3ccccc3)noc2C)cc1 [Parecoxib] | – | – | 90.9 | 87.2 | 95.5 | -1.5 | – | – | – | activation at 10 µM [1, 8]: -3% |
| Fc1ccc([C@@H]2CCNC[C@H]2COc2ccc3c(c2)OCO3)cc1 [Paroxetine] | – | – | – | – | – | – | 70.7 | 38.3 | 11.7 | activation at 0.08 µM ([1]; Rattus norvegicus, 0.08 uM test compound, relative to quetiapine, sheet "All OLga data", read-out: OL differentiation, 0.08 uM (% Quet)): 16.2%; activation at 0.4 µM [1, 17]: -6.1%; activation at 0.08 µM ([1]; Rattus norvegicus, test compound at 0.08 uM, MBP expression relative to quetiapine, NCC library screen, sheet "All OLga data", read-out: 0.08 uM (% Quet)): -4.5%; activation at 0.4 µM ([1]; Rattus norvegicus, test compound at 0.4 uM, MBP expression relative to quetiapine, NCC library screen, sheet "All OLga data", read-out: 0.4 uM (% Quet)): -15.9%; 0.1 µM (% DMSO) (expanded OPCs; [11]): 63.3 % DMSO; 1 µM (% DMSO) (expanded OPCs; [12]): 27.9 % DMSO; 10 µM (% DMSO) (expanded OPCs; [13]): 8.3 % DMSO |
| C[C@H]1COc2c(C3(N)CC3)c(F)cc3c(=O)c(C(=O)O)cn1c23 [Pazufloxacin] | 1.9 | -11 | – | – | – | – | 95.3 | 98 | 104 | – |
| NC1=NC(=O)C(c2ccccc2)O1 (stereo not drawn) [Pemoline] | -15.2 | -10.6 | – | – | – | – | 96 | 104 | 101 | – |
| Nc1nc2c(ncn2CCC(CO)CO)c(=O)[nH]1 [Penciclovir] | -3.5 | 0.01 | 100 | 98 | 90.7 | – | – | – | – | – |
| CC(C)(S)[C@@H](N)C(=O)O [Penicillamine] | – | – | – | – | – | -0.01 | – | – | – | activation at 10 µM [1, 8]: 6%; 0.1 µM (% DMSO) (expanded OPCs; [11]): 86.6 % DMSO; 1 µM (% DMSO) (expanded OPCs; [12]): 87.9 % DMSO; 10 µM (% DMSO) (expanded OPCs; [13]): 92.6 % DMSO |
| CC1(C)S[C@@H]2[C@H](NC(=O)Cc3ccccc3)C(=O)N2[C@H]1C(=O)O [Penicillin G] | – | – | 107 | 102 | 114 | -9.8 | – | – | – | activation at 10 µM [1, 8]: 1.4% |
| CC1(C)S[C@@H]2[C@H](NC(=O)COc3ccccc3)C(=O)N2[C@H]1C(=O)O [Penicillin V] | – | – | – | – | – | – | – | – | – | activation at 2 µM [1, 9]: 14.6%; activation at 10 µM [1, 10]: 6.4%; 0.1 µM (% DMSO) (expanded OPCs; [11]): 96.1 % DMSO; 1 µM (% DMSO) (expanded OPCs; [12]): 96.3 % DMSO; 10 µM (% DMSO) (expanded OPCs; [13]): 93.4 % DMSO |
| CC(=O)CCCCn1c(=O)c2c(ncn2C)n(C)c1=O [Pentoxifylline] | 12.2 | -23.3 | 92.8 | 93.6 | 94.9 | 16.8 | 107 | 101 | 98 | activation at 10 µM [1, 8]: 7.2% |
| CCCN1C[C@H](CSC)C[C@@H]2c3cccc4[nH]cc(c34)C[C@H]21 [Pergolide] | – | – | 100 | 83.6 | 41 | -15.7 | – | – | – | activation at 0.4 µM [1, 18]: -8.9% |
| O=C1[C@H]2CCCC[C@H]2C(=O)N1CCCCN1CCN(c2nsc3ccccc23)CC1 [Perospirone, reference compound] | 84.5 | 18.7 | – | – | – | – | 110 | 164 | 132 | EC50 ([1]; Rattus norvegicus, average EC50 for induction of OL differentiation from independent biological replicates, eight concentrations): 100 nM; hit in OL differentiation assay, MRF-TMC ([1]; ● = confirmed hit in this paper's assay): ● |
